Experiment: Stability of sunscreen actives on HPTLC plates exposed to UV radiation (densitometry)
Format: physicochemical
Details: HPTLC plate, densitometry scan at 357 nm; for % active, 0 hr: UV radiation 5.5 mW/cm^2, 0 hr exposure; for % active, 1 hr: UV radiation 5.5 mW/cm^2, 1 hr exposure; for % active, 2 hr: UV radiation 5.5 mW/cm^2, 2 hr exposure
Method: Sunscreen actives singly or as combinations as shown in Table-1 were checked for stability using the following procedure:
The method was based on spotting the HPTLC plates (in duplicate) with the sunscreen molecules of interest along with potential quencher molecules or formulations. The plate is then exposed to UV radiation (intensity 5.5 mW/cm^2) for 120 minutes. Following this the chromatographic separation was carried out using appropriate solvent system. Densitometry analysis is done to determine the amount of sunscreen degraded. Stock solutions were prepared in methanol following the ratios as mentioned in the following table. 14 μL of stock solutions were loaded (3 mm width; 16 mm separation) on a 10×10 cm F254 HPTLC plate, using CAMAG LINOMAT 5 applicator equipped with a 100 μL micro-syringe (Hamilton, Switzerland). Ascending chromatography was performed at a distance of 85 mm in a TLC chamber using n-hexane-ethyl acetate 9:1 (v/v) as the mobile phase (˜10 mL). The plates were dried at room temperature and subjected to ultraviolet absorption densitometry scan. The concentration dependent fluorescent bands due to presence of sunscreens were detected with a linear scan at 357 nm, using Camag TLC Scanner 3, in the presence of deuterium source. Slit width of 8×0.4 mm and scanning rate of 20 mm s^−1 were maintained during each densitometry scan. Concentrations of Parsol 1789 & the compound of present invention on each lane were determined from densitogram peak areas; prior and after the sun exposure using Win CATS Planar chromatography manager software.

## COc1ccc(/C(O)=C/C(=O)c2ccc(C(C)(C)C)cc2)cc1 [Example 1, Parsol 1789]
  % active, 0 hr: 100%
  % active, 1 hr: 28%
  % active, 2 hr: 5%

## COC(=O)CCC(C)C1CCC2C3C(OC(=O)COc4ccc(C(=O)/C=C(\O)c5ccc(C(C)(C)C)cc5)cc4)C[C@@H]4CC(OC(=O)C(C#N)=C(c5ccccc5)c5ccccc5)CCC4(C)C3CCC12C (stereo partly drawn) [Example 5, UVB & UVA modified methyl ester of chenodeoxy cholic acid]
  % active, 0 hr: 100%
  % active, 1 hr: 93%
  % active, 2 hr: 86%
